From BindingDB's records for doi:10.7270/Q2930S2V (Taibah University, 2017)
pIC50: −log10 of the molar value.

Target: DNA-dependent protein kinase catalytic subunit (Homo sapiens, UniProt P78527)
Experiment: DNA-PK Enzyme Inhibitory Assay
Procedure: The assays of DNA-PK were performed by Reaction Biology Corporation, One Great Valley Parkway, Suite 2 Malvern, PA 19355 USA. All Compounds were dissolved in DMSO (negative control solvent) and tested for their ability to inhibit human DNA-PK enzyme activity. All synthesized compounds were tested in a 10-dose IC50 profile with 4-fold serial dilutions starting at concentration 100 μM. The control compound, LY294002 was tested in a 10-dose IC50 profile with 3-fold serial dilutions starting at 10 μM concentration. Reactions were carried out using 20 μM peptide substrate [EPPLSQEAFADLWKK], 10 μg/ml DNA and 10 μM ATP using the HTRF assay format.

Chain of DNA-dependent protein kinase catalytic subunit (P78527 whole entry): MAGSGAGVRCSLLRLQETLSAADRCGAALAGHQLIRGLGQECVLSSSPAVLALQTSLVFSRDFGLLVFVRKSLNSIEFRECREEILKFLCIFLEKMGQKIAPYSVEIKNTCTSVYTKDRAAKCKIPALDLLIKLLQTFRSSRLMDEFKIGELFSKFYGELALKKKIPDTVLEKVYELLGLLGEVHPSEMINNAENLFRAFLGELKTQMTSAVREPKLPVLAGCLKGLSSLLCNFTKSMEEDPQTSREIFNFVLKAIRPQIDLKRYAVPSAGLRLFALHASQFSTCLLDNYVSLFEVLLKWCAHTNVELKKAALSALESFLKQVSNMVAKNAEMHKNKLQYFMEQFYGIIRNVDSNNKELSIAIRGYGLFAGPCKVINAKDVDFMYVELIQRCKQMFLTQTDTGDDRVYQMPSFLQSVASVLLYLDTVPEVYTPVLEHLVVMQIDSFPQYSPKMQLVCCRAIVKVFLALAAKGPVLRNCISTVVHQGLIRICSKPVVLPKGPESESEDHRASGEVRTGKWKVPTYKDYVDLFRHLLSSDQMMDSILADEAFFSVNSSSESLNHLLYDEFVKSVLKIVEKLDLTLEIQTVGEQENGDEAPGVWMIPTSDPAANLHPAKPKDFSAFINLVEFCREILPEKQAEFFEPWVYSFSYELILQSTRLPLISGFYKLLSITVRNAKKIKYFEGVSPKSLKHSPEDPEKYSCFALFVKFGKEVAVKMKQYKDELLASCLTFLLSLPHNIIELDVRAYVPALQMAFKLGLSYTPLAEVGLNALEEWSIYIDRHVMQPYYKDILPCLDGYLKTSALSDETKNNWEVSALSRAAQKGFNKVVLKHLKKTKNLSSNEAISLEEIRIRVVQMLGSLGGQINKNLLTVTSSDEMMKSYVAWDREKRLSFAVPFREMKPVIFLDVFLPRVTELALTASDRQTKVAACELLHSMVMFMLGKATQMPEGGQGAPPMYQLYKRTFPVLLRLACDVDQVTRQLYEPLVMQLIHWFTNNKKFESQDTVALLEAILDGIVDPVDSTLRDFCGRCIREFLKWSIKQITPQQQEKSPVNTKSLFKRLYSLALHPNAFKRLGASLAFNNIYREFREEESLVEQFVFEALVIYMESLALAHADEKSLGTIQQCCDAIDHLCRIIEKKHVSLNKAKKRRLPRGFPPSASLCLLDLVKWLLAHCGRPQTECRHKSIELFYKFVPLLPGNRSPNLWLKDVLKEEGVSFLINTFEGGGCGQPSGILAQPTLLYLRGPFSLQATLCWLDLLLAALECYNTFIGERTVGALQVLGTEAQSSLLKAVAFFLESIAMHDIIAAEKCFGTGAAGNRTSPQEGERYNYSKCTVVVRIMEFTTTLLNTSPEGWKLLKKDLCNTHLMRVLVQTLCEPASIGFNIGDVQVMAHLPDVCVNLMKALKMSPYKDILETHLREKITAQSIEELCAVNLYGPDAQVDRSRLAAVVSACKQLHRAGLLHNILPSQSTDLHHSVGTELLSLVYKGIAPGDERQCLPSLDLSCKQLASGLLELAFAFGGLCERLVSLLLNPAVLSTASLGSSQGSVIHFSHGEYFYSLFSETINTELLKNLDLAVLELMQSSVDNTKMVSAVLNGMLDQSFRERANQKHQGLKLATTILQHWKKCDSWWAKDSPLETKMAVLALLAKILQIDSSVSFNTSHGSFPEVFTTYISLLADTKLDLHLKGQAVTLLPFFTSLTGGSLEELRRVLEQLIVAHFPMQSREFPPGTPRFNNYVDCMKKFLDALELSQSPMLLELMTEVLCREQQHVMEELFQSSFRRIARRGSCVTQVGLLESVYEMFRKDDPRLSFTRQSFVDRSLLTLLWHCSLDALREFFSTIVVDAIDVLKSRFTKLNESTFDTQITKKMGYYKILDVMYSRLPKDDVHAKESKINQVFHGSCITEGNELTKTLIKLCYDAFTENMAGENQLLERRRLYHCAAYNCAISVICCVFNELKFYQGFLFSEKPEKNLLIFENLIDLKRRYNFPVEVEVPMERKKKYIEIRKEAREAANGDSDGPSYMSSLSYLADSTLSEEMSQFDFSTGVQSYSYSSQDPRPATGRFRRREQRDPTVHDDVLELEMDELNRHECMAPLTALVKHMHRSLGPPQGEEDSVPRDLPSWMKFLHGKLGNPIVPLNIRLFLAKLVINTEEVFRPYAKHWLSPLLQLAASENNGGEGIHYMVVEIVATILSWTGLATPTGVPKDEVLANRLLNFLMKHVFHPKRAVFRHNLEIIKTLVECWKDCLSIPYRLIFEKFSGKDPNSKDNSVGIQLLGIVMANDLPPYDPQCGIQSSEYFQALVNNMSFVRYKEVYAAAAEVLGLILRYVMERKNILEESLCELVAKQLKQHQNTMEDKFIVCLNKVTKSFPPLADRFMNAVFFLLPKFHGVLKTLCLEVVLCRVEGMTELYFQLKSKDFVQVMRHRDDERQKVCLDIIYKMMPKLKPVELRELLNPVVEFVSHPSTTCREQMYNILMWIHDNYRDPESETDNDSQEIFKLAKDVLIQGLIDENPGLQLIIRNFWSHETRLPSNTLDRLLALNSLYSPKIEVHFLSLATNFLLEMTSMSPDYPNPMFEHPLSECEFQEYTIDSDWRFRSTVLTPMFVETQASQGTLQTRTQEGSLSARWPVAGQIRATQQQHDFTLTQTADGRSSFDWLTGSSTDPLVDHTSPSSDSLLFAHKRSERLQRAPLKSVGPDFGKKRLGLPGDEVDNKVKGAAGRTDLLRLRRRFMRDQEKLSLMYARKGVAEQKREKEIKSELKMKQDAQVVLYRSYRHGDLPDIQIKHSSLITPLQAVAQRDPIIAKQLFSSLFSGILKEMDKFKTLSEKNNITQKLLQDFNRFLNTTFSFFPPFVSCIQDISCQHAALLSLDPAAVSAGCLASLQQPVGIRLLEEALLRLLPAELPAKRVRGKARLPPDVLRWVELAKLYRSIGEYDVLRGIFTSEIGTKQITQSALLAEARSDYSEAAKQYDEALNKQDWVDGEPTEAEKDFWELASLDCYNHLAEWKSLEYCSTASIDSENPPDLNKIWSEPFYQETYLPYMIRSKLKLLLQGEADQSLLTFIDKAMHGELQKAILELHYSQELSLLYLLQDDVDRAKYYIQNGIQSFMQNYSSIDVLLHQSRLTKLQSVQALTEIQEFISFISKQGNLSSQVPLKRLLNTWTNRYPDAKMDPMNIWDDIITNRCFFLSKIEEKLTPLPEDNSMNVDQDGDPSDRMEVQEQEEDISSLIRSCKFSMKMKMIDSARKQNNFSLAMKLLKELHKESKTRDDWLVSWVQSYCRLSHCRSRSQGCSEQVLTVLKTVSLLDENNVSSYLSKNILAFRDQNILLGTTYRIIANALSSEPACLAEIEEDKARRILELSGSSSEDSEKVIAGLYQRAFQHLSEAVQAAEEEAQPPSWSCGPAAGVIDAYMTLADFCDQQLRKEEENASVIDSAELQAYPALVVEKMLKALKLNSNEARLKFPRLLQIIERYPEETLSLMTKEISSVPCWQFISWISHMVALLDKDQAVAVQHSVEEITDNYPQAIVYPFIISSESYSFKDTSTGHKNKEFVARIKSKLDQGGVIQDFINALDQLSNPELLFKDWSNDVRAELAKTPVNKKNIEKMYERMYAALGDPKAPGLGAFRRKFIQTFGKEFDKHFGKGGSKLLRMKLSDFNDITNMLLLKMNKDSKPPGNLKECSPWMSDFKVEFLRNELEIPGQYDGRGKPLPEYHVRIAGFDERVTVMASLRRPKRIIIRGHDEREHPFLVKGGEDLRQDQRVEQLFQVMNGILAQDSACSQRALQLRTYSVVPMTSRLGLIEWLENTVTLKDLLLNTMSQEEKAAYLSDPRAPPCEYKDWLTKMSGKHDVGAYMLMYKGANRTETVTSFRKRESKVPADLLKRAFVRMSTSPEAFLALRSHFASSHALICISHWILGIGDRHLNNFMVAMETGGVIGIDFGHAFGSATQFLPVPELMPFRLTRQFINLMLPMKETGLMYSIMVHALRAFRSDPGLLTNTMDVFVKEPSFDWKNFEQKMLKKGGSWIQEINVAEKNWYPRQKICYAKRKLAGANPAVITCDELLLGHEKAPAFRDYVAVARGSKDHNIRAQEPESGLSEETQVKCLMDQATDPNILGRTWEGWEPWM

SMILES | pIC50
Cc1c(OCC(=O)N[C@@H](C)C(=O)O)ccc2c(=O)nc(N3CCOCC3)oc12 [(2-((8-Methyl-2-morpholino-4-oxo-4H-benzo[e][1,3]oxazin-7-yl)oxy)acetyl)alanine (11a)] | 4.00
Cc1c(OCC(=O)NCc2ccccc2)ccc2c(=O)nc(N3CCOCC3)oc12 [N-benzyl-2-((8-methyl-2-morpholino-4-oxo-4H-benzo[e][1,3]oxazin-7-yl)oxy)acetamide (9a)] | < 4.00
Cc1c(OCC(=O)Nc2ccc(S(=O)(=O)Nc3nccs3)cc2)ccc2c(=O)nc(N3CCOCC3)oc12 [2-((8-Methyl-2-morpholino-4-oxo-4H-benzo[e][1,3]oxazin-7-yl)oxy)-N-(4-(N-(thiazol-2-yl)sulfamoyl)phenyl)acetamide (7d)] | 5.46
Cc1c(OCC(=O)Nc2ccc(S(=O)(=O)NC(=N)N)cc2)ccc2c(=O)nc(N3CCOCC3)oc12 [N-(4-(N-carbamimidoylsulfamoyl)phenyl)-2-((8-methyl-2-morpholino-4-oxo-4H-benzo[e][1,3]oxazin-7-yl)oxy)acetamide (7e)] | 4.60
COc1ccc(CNC(=O)COc2ccc3c(=O)nc(N4CCOCC4)oc3c2C)cc1 [N-(4-methoxybenzyl)-2-((8-methyl-2-morpholino-4-oxo-4Hbenzo[e][1,3]oxazin-7-yl)oxy)acetamide (9b)] | 4.82
CCC(C)C(NC(=O)COc1ccc2c(=O)nc(N3CCOCC3)oc2c1C)C(=O)O (stereo not given) [3-Methyl-2-(2-((8-methyl-2-morpholino-4-oxo-4H-benzo[e][1,3]oxazin-7-yl)oxy)acetamido)pentanoic acid (11b)] | 4.10
CC(=O)NS(=O)(=O)c1ccc(NC(=O)COc2ccc3c(=O)nc(N4CCOCC4)oc3c2C)cc1 [N-(4-(N-acetylsulfamoyl)phenyl)-2-((8-methyl-2-morpholino-4-oxo-4H-benzo[e][1,3]oxazin-7-yl)oxy)acetamide (7b)] | 4.46
Cc1c(OCC(=O)N[C@@H](Cc2ccccc2)C(=O)O)ccc2c(=O)nc(N3CCOCC3)oc12 [(2-((8-Methyl-2-morpholino-4-oxo-4H-benzo[e][1,3]oxazin-7yl)oxy)acetyl)phenylalanine (11c)] | 4.46
Cc1c(OCC(=O)NCc2ccc(O)cc2)ccc2c(=O)nc(N3CCOCC3)oc12 [N-(4-hydroxybenzyl)-2-((8-methyl-2-morpholino-4-oxo-4Hbenzo[e][1,3]oxazin-7-yl)oxy)acetamide (9f)] | 5.60
Cc1c(OCC(=O)NCc2ccc(Cl)cc2)ccc2c(=O)nc(N3CCOCC3)oc12 [N-(4-chlorobenzyl)-2-((8-methyl-2-morpholino-4-oxo-4Hbenzo[e][1,3]oxazin-7-yl)oxy)acetamide (9d)] | 5.00

More lines, in order of rising pIC50, values ahead:

pIC50 | SMILES
4.40 | Cc1c(OCC(=O)Nc2ccc(S(N)(=O)=O)cc2)ccc2c(=O)nc(N3CCOCC3)oc12 [2-((8-Methyl-2-morpholino-4-oxo-4H-benzo[e][1,3]oxazin-7-yl)oxy)-N-(4-sulfamoylphenyl)acetamide (7a)]
4.70 | Cc1ccc(CNC(=O)COc2ccc3c(=O)nc(N4CCOCC4)oc3c2C)cc1 [2-((8-Methyl-2-morpholino-4-oxo-4H-benzo[e][1,3]oxazin-7-yl)oxy)-N-(4-methylbenzyl)acetamide (9c)]
5.30 | Cc1noc(NS(=O)(=O)c2ccc(NC(=O)COc3ccc4c(=O)nc(N5CCOCC5)oc4c3C)cc2)c1C [N-(4-(N-(3,4-dimethylisoxazol-5-yl)sulfamoyl)phenyl)-2-((8-methyl-2-morpholino-4-oxo-4H-benzo[e][1,3]oxazin-7-yl)oxy)acetamide (7f)]
5.40 | Cc1c(OCC(=O)NCc2ccc(F)cc2)ccc2c(=O)nc(N3CCOCC3)oc12 [N-(4-fluorobenzyl)-2-((8-methyl-2-morpholino-4-oxo-4Hbenzo[e][1,3]oxazin-7-yl)oxy)acetamide (9e)]
6.60 | Cc1c(OCC(=O)Nc2ccc(S(=O)(=O)Nc3ccccn3)cc2)ccc2c(=O)nc(N3CCOCC3)oc12 [2-((8-Methyl-2-morpholino-4-oxo-4H-benzo[e][1,3]oxazin-7-yl)oxy)-N-(4-(N-(pyridin-2-yl)sulfamoyl)phenyl)acetamide (7c)]
